According to PubChem BioAssay (NCI):
“And” between values parts separate entries of the source, which are not always exact repeats. Identical values can stand only once.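 Compound exposure: 48 hours, 5 concentrations, 96-well plates. GI50 is the concentration that inhibits growth by half. TGI denotes the concentration required for complete inhibition of growth.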

Experiments:
Assay in all cases: NCI-60 cell line screen, 48 h
[1] = system: COLO 205 colon
[2] = system: LOX IMVI melanoma
[3] = system: NCI/ADR-RES ovarian
[4] = system: KM12 colon
[5] = system: TK-10 renal
[6] = system: U251 CNS
[7] = system: MDA-MB-435
[8] = system: RXF 393 renal
[9] = system: HS 578T breast
[10] = system: SK-MEL-5 melanoma

SMILES | GI50 [1] | TGI [1] | GI50 [2] | TGI [2] | GI50 [3] | TGI [3] | GI50 [4] | TGI [4] | GI50 [5] | TGI [5] | GI50 [6] | TGI [6] | GI50 [7] | TGI [7] | GI50 [8] | TGI [8] | GI50 [9] | TGI [9] | GI50 [10] | TGI [10]
O=C1/C(=C/c2cccs2)CCC/C1=C\c1cccs1 | > 100 µM | > 100 µM | > 100 µM | > 100 µM | 50.9 µM | > 100 µM | > 100 µM | > 100 µM | 25.9 µM | > 71.8 µM | 30.6 µM | > 100 µM | > 100 µM | > 100 µM | 26.4 µM | > 100 µM | 29.2 µM | > 100 µM | > 100 µM | > 100 µM
CC(=O)Oc1cccc2c1C(=O)c1c(OC(C)=O)cc(C)cc1C2=O | – | > 100 µM | – | > 100 µM | – | > 100 µM | – | > 100 µM | – | > 100 µM | – | > 100 µM | – | > 100 µM | – | > 100 µM | – | > 100 µM | – | > 100 µM
N#Cc1nc(-c2ccccc2)oc1S(=O)(=O)N1CCOCC1 | 2.23 µM | 4.91 µM | 1.46 µM | 2.91 µM | 14.8 µM | 84.2 µM | 23.6 µM | 68 µM | 6.25 µM | 19.2 µM | 17.7 µM | 42.2 µM | 4.03 µM | 15.1 µM | 1.68 µM | 3.08 µM | 16.3 µM | 50 µM | 5.23 µM | 17.3 µM
Cc1nc(NC(=O)N2CCC[C@H]2C(N)=O)sc1-c1ccnc(C(C)(C)C(F)(F)F)c1 | 2.75 µM and 1.38 µM | 19.6 µM and > 10 µM | 3.36 µM and 2.58 µM | 22 µM and > 10 µM | 14.6 µM and > 10 µM | 85.8 µM and > 10 µM | 15.4 µM and > 10 µM | > 91.5 µM | 1.2 µM and 0.789 µM | 15.8 µM and > 10 µM | 3.22 µM and 5.54 µM | 18.7 µM and > 10 µM | 7.33 µM and > 10 µM | 51.6 µM and > 10 µM | 2.78 µM and 3.45 µM | 17.3 µM and > 10 µM | – | 21.2 µM and 3.1 µM | 11.8 µM and > 10 µM | 24.6 µM and > 10 µM
CC#CC(=O)N1CCC[C@H]1c1nc(-c2ccc(C(=O)Nc3ccccn3)cc2)c2c(N)nccn12 | 85.4 µM | > 100 µM | 98.5 µM | > 100 µM | > 100 µM | > 100 µM | > 72.2 µM | > 100 µM | 21.1 µM | > 100 µM | > 92.4 µM | > 100 µM | 44.1 µM | > 100 µM | 61.7 µM | > 100 µM | > 72.5 µM | > 100 µM | 40.5 µM | > 100 µM
Cn1c(=O)c2[nH]c(COc3ccc(C(C)(C)C)cc3)nc2n(C)c1=O | 50.3 µM | > 100 µM | 19.9 µM | > 100 µM | 8.04 µM | 60.6 µM | 15.9 µM | 44 µM | 23.9 µM | 99.6 µM | 37.5 µM | > 100 µM | 4.09 µM | 35.4 µM | 57 µM | > 100 µM | 20.2 µM | > 100 µM | 4.68 µM | 20.6 µM
O=C(/C=C\c1ccnc2ccccc12)c1ccc([N+](=O)[O-])cc1 | 23.1 µM | > 100 µM | 1.83 µM | 3.75 µM | 8.68 µM | > 100 µM | 3 µM | 11.1 µM | 21.3 µM | > 100 µM | 10.6 µM | 41.6 µM | 2.24 µM | 6.55 µM | 12 µM | > 66 µM | 27.3 µM | > 96 µM | 3.63 µM | 22.3 µM
CC(=O)N1CC(F)(F)c2c(Sc3ncc(N4CCC5(CC4)COC[C@H]5N)nc3N)cccc21 | 17.8 µM | 36.7 µM | 16.6 µM | 32.1 µM | 27.6 µM | > 100 µM | 22.1 µM | > 100 µM | 0.991 µM | 35.8 µM | 11.1 µM | 52.5 µM | 31 µM | > 100 µM | 1.81 µM | 9.28 µM | 14.6 µM | 59.1 µM | 16 µM | 30.1 µM
CC/C=C\CCC/C=C1/C(=O)C=C[C@@H]1C/C=C\CCCC(=O)O | 5.83 µM | 18.4 µM | 1.46 µM | 3.22 µM | 2.96 µM | 11.8 µM | 2.46 µM | 6.62 µM | 5.04 µM | 17.2 µM | 3.7 µM | 13.6 µM | 2.01 µM | 4.99 µM | 3.68 µM | 10.3 µM | 13.7 µM | 59.3 µM | 1.72 µM | 3.31 µM
CCNCCNc1cc(-c2ccc(F)cc2)c(C#N)c2nc3ccccc3n12 | 2.32 µM | 5.74 µM | 1.82 µM | 3.45 µM | 6.34 µM | 25.1 µM | 8.37 µM | 21.1 µM | 2.33 µM | 8.45 µM | 2.41 µM | 5.05 µM | 1.78 µM | 3.5 µM | 1.71 µM | 3.44 µM | 3.15 µM | 12.5 µM | 1.74 µM | 3.18 µM
CN(C)c1ccc(/C=C/c2ccnc3ccccc23)cc1 | 3.37 µM | > 100 µM and 16 µM | 4.7 µM | > 100 µM and 19.7 µM | 2.26 µM | – | 3.11 µM | > 100 µM and 33.7 µM | 9.49 µM | > 100 µM and 58.4 µM | 4.04 µM | > 100 µM and 63.4 µM | 1.36 µM | 72.6 µM and 20.7 µM | 13.4 µM | > 100 µM | 3.67 µM | 57 µM and > 30.1 µM | 2.48 µM | > 100 µM and 11.7 µM
NC(CSC(c1ccccc1)(c1ccccc1)c1ccc2ccccc2c1)C(=O)O (stereo unspecified) | 0.0816 µM | 0.875 µM | 0.172 µM | 18.1 µM | 0.989 µM | 3.64 µM | 0.0804 µM | 3.21 µM | 0.524 µM | 23.6 µM | 0.0408 µM | 12.1 µM | 0.018 µM | 0.0363 µM | 0.0572 µM | 21.5 µM | 0.0267 µM | 0.0832 µM | 0.0438 µM | 11.5 µM
COc1ccccc1-n1c(SCc2cc(OC)c(OC)c(OC)c2)nc2ccc(Cl)cc2c1=O | 3.03 µM | > 100 µM | 5.16 µM | > 100 µM | 2.25 µM | > 100 µM | 1.46 µM | > 100 µM | 48.6 µM | > 100 µM | 3.72 µM | > 100 µM | 0.366 µM | 25.8 µM | 3.78 µM | > 100 µM | 5.81 µM | > 100 µM | 1.47 µM | > 100 µM
COc1ccc(/C=C(\C#N)c2cc3ccccc3n2C)cc1 | 0.366 µM | – | 0.577 µM | > 100 µM | 0.319 µM | > 28.7 µM | 0.503 µM | > 100 µM | 4.51 µM | > 100 µM | 0.493 µM | > 100 µM | 0.153 µM | 0.403 µM | 0.244 µM | 0.834 µM | 0.352 µM | > 100 µM | 0.504 µM | 16.9 µM
O=[N+]([O-])c1ccc2c(N=Nc3c(O)ccc4ccccc34)c(O)cc(S(=O)(=O)O)c2c1 | 53.4 µM | 50 µM and > 100 µM | – | > 100 µM | 40.6 µM | 33.4 µM and > 100 µM | 49.9 µM | 50 µM and > 100 µM | 87.3 µM | 50 µM and > 100 µM | 12.5 µM | 50 µM and > 100 µM | 47.5 µM | 50 µM and > 100 µM | 27.1 µM | 50 µM and > 100 µM | 67.2 µM | > 100 µM | 46.7 µM | 50 µM and > 100 µM
Cn1cnc([N+](=O)[O-])c1Sc1ncnc2c1ncn2C1OC(CO)C(O)C1O (stereo unspecified) | 15 µM | 61 µM | 1.71 µM | > 100 µM | 4.84 µM | > 100 µM | 6.34 µM | > 100 µM | 4.58 µM | > 100 µM | 8.79 µM | > 100 µM | 3.6 µM | > 100 µM | 24.6 µM | > 100 µM | 27.8 µM | > 100 µM | 11.4 µM | > 100 µM
Oc1ccccc1-n1c(-c2ccccc2)ccc1-c1ccccc1 | 15.3 µM | 56.6 µM | 6.1 µM | 20.5 µM | 5.13 µM | 23.1 µM | 4.05 µM | 19.3 µM | 11.1 µM | 24.1 µM | 7.66 µM | 20.6 µM | 2.81 µM | 20.9 µM | 7.93 µM | 23 µM | 14 µM | > 100 µM | 3.05 µM | > 100 µM
